Columns and labels:
[1] = molecular target: Sodium-dependent dopamine transporter (Homo sapiens, UniProt Q01959); experiment: GPCRScan assay: inhibition of DAT; parameters: radioligand conc. used [nm] 3.6 – 16.0, parental cells stable HEK
[2] = molecular target: 5-hydroxytryptamine receptor 2B (Homo sapiens, UniProt P41595); experiment: GPCRScan assay: inhibition of 5-HT2B; parameters: radioligand conc. used [nm] 1.0 – 2.0, parental cells stable HEK
[3] = molecular target: 5-hydroxytryptamine receptor 1D (Homo sapiens, UniProt P28221); experiment: GPCRScan assay: inhibition of 5-HT1D; parameters: radioligand conc. used [nm] 1.0 – 2.0, parental cells HEKT
[4] = molecular target: Alpha-2A adrenergic receptor (Homo sapiens, UniProt P08913); experiment: GPCRScan assay: inhibition of Alpha2A; parameters: radioligand conc. used [nm] 1.0 – 3.0, parental cells stable MDCK
[5] = molecular target: Serine/threonine-protein kinase DCLK2 (Homo sapiens) (UniProt Q8N568); conditions: Compound concentration 1000.0 nM
[6] = molecular target: Cyclin-dependent kinase 11B (Homo sapiens) (UniProt P21127); conditions: Compound concentration 1000.0 nM
[7] = molecular target: Mitogen-activated protein kinase 9 (Homo sapiens) (UniProt P45984); conditions: Compound concentration 1000.0 nM
[8] = tested on: Receptor-type tyrosine-protein kinase FLT3 (Homo sapiens), P36888 [D835H]; conditions: Compound concentration 1000.0 nM
[9] = molecular target: Serine/threonine-protein kinase ICK (Homo sapiens) (UniProt Q9UPZ9); conditions: Compound concentration 1000.0 nM
[10] = molecular target: Cyclin-dependent kinase 16 (Homo sapiens) (UniProt Q00536); conditions: Compound concentration 1000.0 nM
[11] = molecular target: Serine/threonine-protein kinase 16 (Homo sapiens) (UniProt O75716); conditions: Compound concentration 1000.0 nM
[12] = tested on: Receptor-type tyrosine-protein kinase FLT3 (Homo sapiens), P36888 [D835V]; conditions: Compound concentration 1000.0 nM
[13] = molecular target: NUAK family SNF1-like kinase 2 (Homo sapiens) (UniProt Q9H093); conditions: Compound concentration 1000.0 nM
[14] = molecular target: Focal adhesion kinase 1 (Homo sapiens) (UniProt Q05397); conditions: Compound concentration 1000.0 nM
[15] = molecular target: Activin receptor type-2B (Homo sapiens) (UniProt Q13705); conditions: Compound concentration 1000.0 nM
[16] = molecular target: Ribosomal protein S6 kinase alpha-5 (Homo sapiens) (UniProt O75582); conditions: Compound concentration 1000.0 nM
[17] = molecular target: Microtubule-associated serine/threonine-protein kinase 1 (Homo sapiens) (UniProt Q9Y2H9); conditions: Compound concentration 1000.0 nM
[18] = molecular target: Serine/threonine-protein kinase STK11 (Homo sapiens) (UniProt Q15831); conditions: Compound concentration 1000.0 nM
[19] = molecular target: Macrophage colony-stimulating factor 1 receptor (Homo sapiens) (UniProt P07333); conditions: Compound concentration 1000.0 nM
[20] = molecular target: Serine/threonine-protein kinase tousled-like 2 (Homo sapiens) (UniProt Q86UE8); conditions: Compound concentration 1000.0 nM
[21] = tested on: Phosphatidylinositol 4,5-bisphosphate 3-kinase catalytic subunit alpha isoform (Homo sapiens), P42336 [H1047Y]; conditions: Compound concentration 1000.0 nM
[22] = molecular target: 5'-AMP-activated protein kinase catalytic subunit alpha-2 (Homo sapiens) (UniProt P54646); conditions: Compound concentration 1000.0 nM
[23] = molecular target: Vascular endothelial growth factor receptor 1 (Homo sapiens) (UniProt P17948); conditions: Compound concentration 1000.0 nM
[24] = molecular target: Tyrosine-protein kinase receptor UFO (Homo sapiens) (UniProt P30530); conditions: Compound concentration 1000.0 nM
[25] = molecular target: Receptor-type tyrosine-protein kinase FLT3 (Homo sapiens) (UniProt P36888); conditions: Compound concentration 1000.0 nM
[26] = molecular target: Mitogen-activated protein kinase kinase kinase 3 (Homo sapiens) (UniProt Q99759); conditions: Compound concentration 1000.0 nM
[27] = molecular target: Mitogen-activated protein kinase 10 (Homo sapiens) (UniProt P53779); conditions: Compound concentration 1000.0 nM
[28] = molecular target: Serine/threonine-protein kinase tousled-like 1 (Homo sapiens) (UniProt Q9UKI8); conditions: Compound concentration 1000.0 nM
[29] = molecular target: Serine/threonine-protein kinase MARK2 (Homo sapiens) (UniProt Q7KZI7); conditions: Compound concentration 1000.0 nM
[30] = tested on: Tyrosine-protein kinase ABL1 (Homo sapiens), P00519 [E255K]; conditions: Compound concentration 1000.0 nM
[31] = molecular target: Tyrosine-protein kinase Fes/Fps (Homo sapiens) (UniProt P07332); conditions: Compound concentration 1000.0 nM
[32] = molecular target: Membrane-associated tyrosine- and threonine-specific cdc2-inhibitory kinase (Homo sapiens) (UniProt Q99640); conditions: Compound concentration 1000.0 nM
[33] = molecular target: Casein kinase I isoform alpha (Homo sapiens) (UniProt P48729); conditions: Compound concentration 1000.0 nM
[34] = molecular target: Cyclin-dependent kinase 13 (Homo sapiens) (UniProt Q14004); conditions: Compound concentration 1000.0 nM
[35] = molecular target: Platelet-derived growth factor receptor beta (Homo sapiens) (UniProt P09619); conditions: Compound concentration 1000.0 nM
[36] = molecular target: Non-receptor tyrosine-protein kinase TYK2 (Homo sapiens) (UniProt P29597); conditions: Compound concentration 1000.0 nM
[37] = molecular target: Phosphatidylinositol 4,5-bisphosphate 3-kinase catalytic subunit gamma isoform (Homo sapiens) (UniProt P48736); conditions: Compound concentration 1000.0 nM
[38] = molecular target: G protein-coupled receptor kinase 3 (Homo sapiens) (UniProt P35626); conditions: Compound concentration 1000.0 nM
[39] = molecular target: Mitogen-activated protein kinase 4 (Homo sapiens) (UniProt P31152); conditions: Compound concentration 1000.0 nM
[40] = molecular target: Macrophage-stimulating protein receptor (Homo sapiens) (UniProt Q04912); conditions: Compound concentration 1000.0 nM
[41] = molecular target: Cyclin-dependent kinase 5 (Homo sapiens) (UniProt Q00535); conditions: Compound concentration 1000.0 nM
[42] = molecular target: Calcium/calmodulin-dependent protein kinase kinase 1 (Homo sapiens) (UniProt Q8N5S9); conditions: Compound concentration 1000.0 nM
[43] = tested on: Receptor-type tyrosine-protein kinase FLT3 (Homo sapiens), P36888 [UNDEFINED MUTATION]; conditions: Compound concentration 1000.0 nM
[44] = molecular target: Non-receptor tyrosine-protein kinase TNK1 (Homo sapiens) (UniProt Q13470); conditions: Compound concentration 1000.0 nM
[45] = molecular target: BMP-2-inducible protein kinase (Homo sapiens) (UniProt Q9NSY1); conditions: Compound concentration 1000.0 nM

Sequence of Sodium-dependent dopamine transporter (Q01959 whole entry): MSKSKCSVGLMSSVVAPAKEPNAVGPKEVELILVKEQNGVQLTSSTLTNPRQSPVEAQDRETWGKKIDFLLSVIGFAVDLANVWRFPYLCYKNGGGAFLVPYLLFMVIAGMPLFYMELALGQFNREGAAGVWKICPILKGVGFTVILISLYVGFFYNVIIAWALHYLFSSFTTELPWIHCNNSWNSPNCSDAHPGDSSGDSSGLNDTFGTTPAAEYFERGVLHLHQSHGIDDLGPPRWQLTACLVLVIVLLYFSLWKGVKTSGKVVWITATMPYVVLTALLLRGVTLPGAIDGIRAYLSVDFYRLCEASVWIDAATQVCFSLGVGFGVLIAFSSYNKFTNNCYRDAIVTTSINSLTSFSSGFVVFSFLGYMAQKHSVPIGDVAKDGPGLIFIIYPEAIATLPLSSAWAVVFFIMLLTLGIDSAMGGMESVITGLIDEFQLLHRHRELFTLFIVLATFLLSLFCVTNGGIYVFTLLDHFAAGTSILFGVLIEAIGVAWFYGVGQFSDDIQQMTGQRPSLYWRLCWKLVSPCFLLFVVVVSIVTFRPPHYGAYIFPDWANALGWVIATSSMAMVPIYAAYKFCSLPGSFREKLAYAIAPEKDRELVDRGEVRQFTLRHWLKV
Sequence of Serine/threonine-protein kinase tousled-like 2 (Homo sapiens) (Q86UE8 whole entry, looked up, canonical isoform): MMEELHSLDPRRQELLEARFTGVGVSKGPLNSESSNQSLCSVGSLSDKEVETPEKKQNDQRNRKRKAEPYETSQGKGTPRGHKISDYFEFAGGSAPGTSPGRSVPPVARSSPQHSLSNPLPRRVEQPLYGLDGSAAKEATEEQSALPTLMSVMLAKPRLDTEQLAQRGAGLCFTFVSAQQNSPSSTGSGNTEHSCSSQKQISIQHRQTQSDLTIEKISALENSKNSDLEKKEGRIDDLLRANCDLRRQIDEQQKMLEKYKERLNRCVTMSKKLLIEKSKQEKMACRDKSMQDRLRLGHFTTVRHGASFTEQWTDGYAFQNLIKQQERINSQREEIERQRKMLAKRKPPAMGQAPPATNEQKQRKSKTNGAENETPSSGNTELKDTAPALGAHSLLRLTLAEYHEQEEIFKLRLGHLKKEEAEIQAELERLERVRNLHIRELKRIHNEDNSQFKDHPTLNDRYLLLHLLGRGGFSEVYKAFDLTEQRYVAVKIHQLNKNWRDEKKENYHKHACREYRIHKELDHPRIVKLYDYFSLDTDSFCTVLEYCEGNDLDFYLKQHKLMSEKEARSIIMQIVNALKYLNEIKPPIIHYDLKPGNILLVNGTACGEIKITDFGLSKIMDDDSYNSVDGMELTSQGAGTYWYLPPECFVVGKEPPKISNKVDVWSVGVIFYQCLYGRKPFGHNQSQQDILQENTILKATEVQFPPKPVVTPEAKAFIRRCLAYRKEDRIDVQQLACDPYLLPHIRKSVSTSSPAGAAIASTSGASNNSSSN
Sequence of Serine/threonine-protein kinase ICK (Homo sapiens) (Q9UPZ9 whole entry): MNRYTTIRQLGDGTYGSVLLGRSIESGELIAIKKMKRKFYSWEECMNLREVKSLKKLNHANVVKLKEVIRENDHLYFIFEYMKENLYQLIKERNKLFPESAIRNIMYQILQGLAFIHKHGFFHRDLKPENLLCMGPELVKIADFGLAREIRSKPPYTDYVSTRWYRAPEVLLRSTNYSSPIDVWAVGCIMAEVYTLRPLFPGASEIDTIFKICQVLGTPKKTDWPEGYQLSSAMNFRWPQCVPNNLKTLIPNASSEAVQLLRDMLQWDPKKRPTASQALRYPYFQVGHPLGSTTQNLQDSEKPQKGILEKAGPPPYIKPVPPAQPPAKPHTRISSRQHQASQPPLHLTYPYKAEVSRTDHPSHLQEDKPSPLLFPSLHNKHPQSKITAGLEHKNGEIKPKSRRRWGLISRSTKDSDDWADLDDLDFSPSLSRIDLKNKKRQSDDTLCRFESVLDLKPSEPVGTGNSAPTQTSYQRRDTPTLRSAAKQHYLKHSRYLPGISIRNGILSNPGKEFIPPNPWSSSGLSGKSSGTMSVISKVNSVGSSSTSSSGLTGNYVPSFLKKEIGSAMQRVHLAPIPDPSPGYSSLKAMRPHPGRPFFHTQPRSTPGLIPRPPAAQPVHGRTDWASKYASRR
Sequence of Serine/threonine-protein kinase 16 (Homo sapiens) (O75716 whole entry): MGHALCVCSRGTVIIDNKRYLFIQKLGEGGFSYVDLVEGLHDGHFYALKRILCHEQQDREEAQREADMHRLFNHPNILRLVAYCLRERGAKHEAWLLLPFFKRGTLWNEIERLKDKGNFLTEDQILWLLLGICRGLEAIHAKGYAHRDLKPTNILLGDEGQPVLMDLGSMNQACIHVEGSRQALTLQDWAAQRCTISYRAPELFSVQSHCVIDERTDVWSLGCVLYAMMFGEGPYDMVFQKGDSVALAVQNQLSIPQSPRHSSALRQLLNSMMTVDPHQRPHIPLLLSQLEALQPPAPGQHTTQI
Sequence of Serine/threonine-protein kinase tousled-like 1 (Homo sapiens) (Q9UKI8 whole entry): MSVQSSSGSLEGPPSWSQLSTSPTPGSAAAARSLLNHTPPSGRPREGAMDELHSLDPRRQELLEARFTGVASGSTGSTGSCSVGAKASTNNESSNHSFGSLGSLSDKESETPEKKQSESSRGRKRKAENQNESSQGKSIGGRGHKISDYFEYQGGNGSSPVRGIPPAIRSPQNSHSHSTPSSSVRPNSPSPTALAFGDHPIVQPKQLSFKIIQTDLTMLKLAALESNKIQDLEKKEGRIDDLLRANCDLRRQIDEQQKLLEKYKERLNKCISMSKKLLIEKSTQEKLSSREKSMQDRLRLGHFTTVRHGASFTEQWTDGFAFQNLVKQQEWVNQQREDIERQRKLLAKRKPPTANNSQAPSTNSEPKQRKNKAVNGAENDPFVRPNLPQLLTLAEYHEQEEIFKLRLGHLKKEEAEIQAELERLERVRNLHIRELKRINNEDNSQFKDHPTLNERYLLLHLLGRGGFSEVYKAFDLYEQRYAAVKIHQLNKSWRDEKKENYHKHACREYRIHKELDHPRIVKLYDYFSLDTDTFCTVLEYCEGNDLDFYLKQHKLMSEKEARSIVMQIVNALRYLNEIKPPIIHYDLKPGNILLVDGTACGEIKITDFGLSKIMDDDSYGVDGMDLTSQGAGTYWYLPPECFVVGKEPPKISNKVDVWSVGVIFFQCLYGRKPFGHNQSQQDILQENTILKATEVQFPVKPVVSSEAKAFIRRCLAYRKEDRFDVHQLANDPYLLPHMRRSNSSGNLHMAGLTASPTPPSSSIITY
Sequence of Calcium/calmodulin-dependent protein kinase kinase 1 (Homo sapiens) (Q8N5S9 whole entry, looked up): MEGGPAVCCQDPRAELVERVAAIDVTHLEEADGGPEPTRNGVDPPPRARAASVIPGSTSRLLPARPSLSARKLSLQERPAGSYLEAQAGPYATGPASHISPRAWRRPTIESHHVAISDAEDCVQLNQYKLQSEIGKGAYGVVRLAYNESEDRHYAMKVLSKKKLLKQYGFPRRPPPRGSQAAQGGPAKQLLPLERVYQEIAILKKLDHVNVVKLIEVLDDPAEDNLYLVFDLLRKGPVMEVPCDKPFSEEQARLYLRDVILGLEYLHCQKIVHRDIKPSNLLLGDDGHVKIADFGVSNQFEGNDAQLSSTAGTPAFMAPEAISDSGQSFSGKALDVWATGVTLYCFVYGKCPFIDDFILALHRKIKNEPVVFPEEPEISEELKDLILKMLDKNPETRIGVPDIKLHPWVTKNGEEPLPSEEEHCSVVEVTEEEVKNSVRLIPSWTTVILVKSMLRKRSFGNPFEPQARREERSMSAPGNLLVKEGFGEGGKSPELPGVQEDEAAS
Sequence of Non-receptor tyrosine-protein kinase TYK2 (Homo sapiens) (P29597 whole entry, canonical isoform): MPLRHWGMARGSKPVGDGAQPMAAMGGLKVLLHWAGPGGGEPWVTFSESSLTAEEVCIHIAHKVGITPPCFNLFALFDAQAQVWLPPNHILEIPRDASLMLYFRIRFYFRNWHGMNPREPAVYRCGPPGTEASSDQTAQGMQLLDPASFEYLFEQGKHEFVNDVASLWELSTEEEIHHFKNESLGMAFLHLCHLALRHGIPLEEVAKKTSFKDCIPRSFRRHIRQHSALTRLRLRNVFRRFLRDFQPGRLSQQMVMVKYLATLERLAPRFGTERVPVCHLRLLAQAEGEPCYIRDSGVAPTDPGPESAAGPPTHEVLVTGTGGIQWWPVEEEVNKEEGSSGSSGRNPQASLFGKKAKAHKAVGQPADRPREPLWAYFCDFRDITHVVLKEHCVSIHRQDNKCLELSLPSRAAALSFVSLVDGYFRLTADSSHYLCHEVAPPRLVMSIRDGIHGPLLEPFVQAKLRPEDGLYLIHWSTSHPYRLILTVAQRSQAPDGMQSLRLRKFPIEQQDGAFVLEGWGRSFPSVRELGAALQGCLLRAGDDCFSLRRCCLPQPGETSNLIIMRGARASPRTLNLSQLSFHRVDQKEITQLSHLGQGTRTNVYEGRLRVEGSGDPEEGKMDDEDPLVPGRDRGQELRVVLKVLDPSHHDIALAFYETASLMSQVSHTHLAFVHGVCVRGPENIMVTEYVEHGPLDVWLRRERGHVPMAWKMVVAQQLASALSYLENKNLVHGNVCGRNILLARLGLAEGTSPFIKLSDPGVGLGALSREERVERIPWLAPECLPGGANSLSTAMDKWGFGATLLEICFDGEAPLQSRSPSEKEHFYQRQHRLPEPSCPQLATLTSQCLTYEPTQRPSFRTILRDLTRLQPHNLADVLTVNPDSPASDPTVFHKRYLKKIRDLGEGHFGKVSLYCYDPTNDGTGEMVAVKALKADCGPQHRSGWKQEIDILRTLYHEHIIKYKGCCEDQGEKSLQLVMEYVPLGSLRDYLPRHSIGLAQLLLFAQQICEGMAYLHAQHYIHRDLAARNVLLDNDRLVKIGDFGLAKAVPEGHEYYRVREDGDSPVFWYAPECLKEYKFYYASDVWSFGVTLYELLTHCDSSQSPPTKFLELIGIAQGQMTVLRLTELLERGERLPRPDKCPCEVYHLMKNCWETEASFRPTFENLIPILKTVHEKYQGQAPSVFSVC

`CC(C)(C)OC(=O)N1CCCC1CNC1CCC(c2cc(F)ccc2F)(S(=O)(=O)c2ccc(Cl)cc2)CC1` (stereo unspecified) [GSI-NC] was tested, and the Ki [1] was 10000 nM, the pKi [1] was 5 and the Ki [2] was 21 nM. It also gave a Ki [3] of 234 nM and a Ki [4] of 237 nM.

`O=S(=O)(NC1CCC(c2cc(F)ccc2F)(S(=O)(=O)c2ccc(Cl)cc2)CC1)C(F)(F)F` (stereo unspecified) [MRK-560] was tested, and the residual activity [5] was 94%, the residual activity [6] was 82% and the residual activity [7] was 73%. For the same compound, the residual activity [8] was 90%, the residual activity [9] was 85% and the residual activity [10] was 68%. It also gave a residual activity [11] of 97%, a residual activity [12] of 82% and a residual activity [13] of 100%. It also gave a residual activity [14] of 90%, a residual activity [15] of 95% and a residual activity [16] of 71%. The residual activity [17] was 100%, the residual activity [18] was 100% and the residual activity [19] was 100%. For the same compound, the residual activity [20] was 100%, the residual activity [21] was 100% and the residual activity [22] was 96%. For the same compound, the residual activity [23] was 86%, the residual activity [24] was 100% and the residual activity [25] was 100%. The residual activity [26] was 100%, the residual activity [27] was 67% and the residual activity [28] was 100%. The residual activity [29] was 100%, the residual activity [30] was 100% and the residual activity [31] was 88%. For the same compound, the residual activity [32] was 100%, the residual activity [33] was 100% and the residual activity [34] was 92%. It also gave a residual activity [35] of 100%, a residual activity [36] of 100% and a residual activity [37] of 100%. It also gave a residual activity [38] of 92%, a residual activity [39] of 95% and a residual activity [40] of 93%. For the same compound, the residual activity [41] was 100%, the residual activity [42] was 100% and the residual activity [43] was 97%. It also gave a residual activity [44] of 98% and a residual activity [45] of 92%.
